According to US7700590B2, “Antibacterial agents” (University of New Orleans Research and Technology …, priority 2006, dated 2010):
In brackets after ≈: the same amount, converted by molar mass.

Assays:
Assay type in all cases: cell-based
[1] = tested on: Staphylococcus aureus 29213; assay: Antibacterial growth inhibition assay (serial dilution, colorimeter at 600 nm), S. aureus 29213; set-up: key to MIC, concentration at 50% inhibition of bacteria growth, S. aureus 29213: N stands for no inhibition; conditions: for MIC / MIC90: Staphylococcus aureus, 29213; for MIC / MIC, concentration at 50% inhibition of bacteria growth, S. aureus 29213: 50% growth inhibition, methicillin susceptible strain, serial dilution 238-0.46 μg/ml; for MIC: read-out: MIC, concentration at 50% inhibition of bacteria growth, S. aureus 29213; for MIC90: concentration of inhibition at 90%, Table 2, read-out: MIC90 S. aureus 29213
Protocol: (§1) The antibacterial activities of the compounds synthesized as described above were evaluated by assay against several strains of Gram positive bacteria from the American Type Culture Collection (ATCC), Staphylococcus aureus 29213, Staphylococcus aureus 43300, Enterococcus faecalis 29212, and Bacillus subtilis PY79. The minimum inhibition concentration (MIC, μg/mL) of each compound synthesized was tested against four bacterial strains. The inhibition of bacterial growth was monitored using a standard colorimeter at 600 nm using a serial dilution at concentrations 238, 119, 59.5, 29.8, 14.9, 7.44, 3.72, 1.86, 0.93, 0.46 μg/ml. Chloramphenicol was tested as a control, and inhibits bacteria growth (MIC90) at 7.44, 7.44, 4.0, 2.0 μg/mL, respectively, for the four bacterial strains listed in Table 1. In Table 1, the MICs are reported as the concentrations at 50% inhibition of bacteria growth, and N stands for no inhibition.

[2] = tested on: Staphylococcus aureus 43300; assay: Antibacterial growth inhibition assay (serial dilution, colorimeter at 600 nm), S. aureus 43300; set-up: key to MIC, concentration at 50% inhibition of bacteria growth, S. aureus 43300: N stands for no inhibition; conditions: for MIC: Staphylococcus aureus, 43300, read-out: MIC, concentration at 50% inhibition of bacteria growth, S. aureus 43300; for MIC / MIC, concentration at 50% inhibition of bacteria growth, S. aureus 43300: 50% growth inhibition, methicillin resistant strain, serial dilution 238-0.46 μg/ml
Protocol: as §1

[3] = tested on: Enterococcus faecalis 29212; assay: Antibacterial growth inhibition assay (serial dilution, colorimeter at 600 nm), E. faecalis 29212; set-up: key to MIC, concentration at 50% inhibition of bacteria growth, E. faecalis 29212: N stands for no inhibition; conditions: for MIC: Enterococcus faecalis, 29212, read-out: MIC, concentration at 50% inhibition of bacteria growth, E. faecalis 29212; for MIC / MIC, concentration at 50% inhibition of bacteria growth, E. faecalis 29212: 50% growth inhibition, vancomycin susceptible strain, serial dilution 238-0.46 μg/ml
Protocol: as §1

[4] = tested on: Bacillus subtilis PY79; assay: Antibacterial growth inhibition assay (serial dilution, colorimeter at 600 nm), B. subtilis PY79; set-up: key to MIC, concentration at 50% inhibition of bacteria growth, B. subtilis PY79: N stands for no inhibition; conditions: for MIC / MIC90: Bacillus subtilis, PY79; for MIC / MIC, concentration at 50% inhibition of bacteria growth, B. subtilis PY79: 50% growth inhibition, serial dilution 238-0.46 μg/ml; for MIC: read-out: MIC, concentration at 50% inhibition of bacteria growth, B. subtilis PY79; for MIC90: concentration of inhibition at 90%, Table 2, read-out: MIC90 B. subtilis PY79
Protocol: as §1

[5] = tested on: Gram positive bacteria, including S. aureus, E. faecalis and B. subtilis; assay: Antibacterial activity, statements not tied to one strain; conditions: for antibacterial activity in words: strain not singled out
Protocol: as §1

| Structure (SMILES) | MIC [1] | MIC90 [1] | MIC [2] | MIC [3] | MIC [4] | MIC90 [4] | antibacterial activity in words [5] | MIC, concentration at 50% inhibition of bacteria growth, E. faecalis 29212 [3] | MIC, concentration at 50% inhibition of bacteria growth, S. aureus 29213 [1] | MIC, concentration at 50% inhibition of bacteria growth, S. aureus 43300 [2] | MIC, concentration at 50% inhibition of bacteria growth, B. subtilis PY79 [4] | other results |
| --- | --- | --- | --- | --- | --- | --- | --- | --- | --- | --- | --- | --- |
| CCN1CC[C@@H](CN(Cc2ccccc2)Cc2cccc3ccccc23)OC1=O [Compound A13] | 10 µg/mL (≈ 25.7 µM) | 14.9 µg/mL (≈ 38.4 µM) | 35 µg/mL (≈ 90.1 µM) | 7.4 µg/mL (≈ 19 µM) | 7.6 µg/mL (≈ 19.6 µM) | 30 µg/mL (≈ 77.2 µM) | most potent | – | – | – | – | – |
| CCN1CC[C@@H](CN(Cc2ccccc2)Cc2ccc(Cl)c(Cl)c2)OC1=O (stereo in doubt) [Compound A11, 6-{[benzyl-(3,4-dichloro-benzyl)-amino]-methyl}-3-ethyl-[1,3]oxazinan-2-one] | – | – | – | – | – | – | good activity | – | – | – | – | – |
| CCN1CC[C@@H](CN(Cc2ccccc2)Cc2ccc(Cl)c(Cl)c2)OC1=O [Compound A11, 6-{[benzyl-(3,4-dichloro-benzyl)-amino]-methyl}-3-ethyl-[1,3]oxazinan-2-one] | 5.6 µg/mL (≈ 13.7 µM) | 9.85 µg/mL (≈ 24.2 µM) | 6.56 µg/mL (≈ 16.1 µM) | – | 5 µg/mL (≈ 12.3 µM) | 7.44 µg/mL (≈ 18.3 µM) | most potent | N | – | – | – | antibacterial activity in words ([1]; S. aureus 29213): excellent activity; antibacterial activity in words ([2]; S. aureus 43300): excellent activity; antibacterial activity in words ([3]; E. faecalis 29212): no activity; antibacterial activity in words ([4]; B. subtilis PY79): excellent activity; MIC90 ([5]; strain not named in the sentence (Table 2: S. aureus 29213, B. subtilis PY79)): < 10 µg/mL |
| CCN1CC[C@@H](CN(Cc2ccccc2)Cc2ccccn2)OC1=O [Compound A15] | – | – | – | – | – | – | decreased or nullified | N | N | N | N | – |
| CCN1CC[C@@H](CN(Cc2ccccc2)Cc2ccccc2C)OC1=O [Compound A17] | 22 µg/mL (≈ 62.4 µM) | 29.8 µg/mL (≈ 84.5 µM) | 22.5 µg/mL (≈ 63.8 µM) | 8.1 µg/mL (≈ 23 µM) | 26 µg/mL (≈ 73.8 µM) | 59.5 µg/mL (≈ 169 µM) | most potent | – | – | – | – | concentration of complete (greater than 90%) inhibition ([1]; S. aureus 29213): 30 µg/mL; concentration of complete (greater than 90%) inhibition ([2]; S. aureus 43300, methicillin resistant): 30 µg/mL; concentration inhibiting over 90% growth ([3]; E. faecalis 29212): 14.9 µg/mL |
| CN1CC[C@@H](CN(Cc2ccccc2)Cc2ccc3ccccc3c2)OC1=O [Compound B9] | 11.5 µg/mL (≈ 30.7 µM) | 14.9 µg/mL (≈ 39.8 µM) | 13 µg/mL (≈ 34.7 µM) | 14.9 µg/mL (≈ 39.8 µM) | 12 µg/mL (≈ 32 µM) | 30 µg/mL (≈ 80.1 µM) | most potent | – | – | – | – | – |
| CCN1CC[C@@H](CN(Cc2ccccc2)Cc2cccnc2)OC1=O [Compound A14] | – | – | – | – | – | – | decreased or nullified | 238 µg/mL | N | N | N | – |
| CCN1CC[C@@H](CN(Cc2ccccc2)Cc2cc(F)cc(F)c2)OC1=O [Compound A10] | – | – | – | – | – | – | – | 37.0 µg/mL | 40.0 µg/mL | 45.0 µg/mL | 43.0 µg/mL | – |
